{
  "source": "patent US20100047227A1",
  "about": "“NOVEL ANTICANCER CATHEPSIN FORMULATIONS AND ANTICANCER AGENT FOR USE IN COMBINED ANTICANCER THERAPY” (priority 2006, published 2010)",
  "key": {"[1]": {"tested_on": "human prostate epithelium (PrE) cells", "assay": "cell survival rate of normal human prostate epithelial cells", "assay_type": "cell-based", "settings": "100 μg/ml, 37° C., pH 7.4, 20 hours", "description": "The survival rate of cells was measured by Cell Counting Kit-8 in accordance with a manufacturer's manual. The method will be described briefly as follows. A 96-well (each 100 μl) plate was inoculated with cells (1×10^4 cells) and incubated for 24 hours, and the cells were incubated in a non-serum culture medium Opti-MEM together with a given concentration of each cathepsin purified from rat stomach (References #27 and #60-#62). Thereafter, the kit reagent (10 μl) was added to each well and the wells were incubated for another 1 hour. After incubation, each well was measured at the absorbance of 450 nm with a microplate reader.\n(§1) In this assay, the cells to be tested were incubated to a ˜80% confluent state and then together with cathepsin E (100 μg/ml) or physiological saline at 37° C. and pH 7.4 for 20 hours, followed by measurements for the cell survival rate by a colorimetric assay. The cell survival rate is represented as a percentage of a corresponding value to the cells treated with physiological saline, and the data is represented as an average value±SD from the data obtained by four separate experiments. […] As an alternative method, a culture medium of each cell line was immunoblot-analyzed using an anti-OPG antibody. […] Thereafter, the immunoblot was analyzed for its concentration in order to determine a quantity of a soluble TRAIL trimer. […]"}, "soluble TRAIL trimers": {"tested_on": "soluble TRAIL trimers", "assay": "immunoblot densitometry of soluble TRAIL trimer in culture supernatant", "assay_type": "cell-based, human", "settings": "PrE and prostate cancer cell lines treated with cathepsin E", "description": "The SDS-PAGE and immunoblot analyses were carried out according to prior art literature (Reference #63). The protein fractioned by SDS-PAGE was migrated on nitrocellulose membrane and was blocked with 5% non-fat dried milk. Then, the nitrocellulose membrane was incubated overnight at 4° C. with a primary antibody, i.e., anti-TRAIL antibody (1/300-fold dilution), anti-TNF-α antibody (1/200-fold dilution), anti-FasL antibody (1/500-fold dilution), anti-DR4 antibody (1/500-fold dilution), anti-DR5 antibody (1/100-fold dilution), anti-DcR1 antibody (1/500-fold dilution), anti-DcR2 antibody (1/500-fold dilution), anti-osteoprotegrin (1/150-fold dilution) or anti-β-actin antibody (1/500-fold dilution). […] The resulting membrane was then washed several times and an immunocomplex was detected with a chemiluminescent reagent. The measurement for density was measured with LAS 1000 analyzer.\nas §1, with “assay.” for “assay. The cell survival rate is represented as a percentage of a corresponding value to the cells treated with physiological saline, and the data is represented as an average value±SD from the data obtained by four separate experiments.”"}, "FasL": {"tested_on": "FasL", "assay": "ELISA of FasL in culture supernatant of ALVA-41 cells", "assay_type": "cell-based, human", "settings": "ALVA-41 cells treated with cathepsin E 100 μg/ml, 20 hours", "description": "(§2) ALVA-41 cells (1×10^6 cells per a 6-cm dish) were incubated together with cathepsin E (100 μg/ml) in a non-serum culture medium Opti-MEM at 37° C. for 20 hours. The resulting culture supernatant was measured for amounts of TRAIL, FasL and TNF-α with ELSA kit in a manner as will be described briefly. A sample and a standard product (each 100 μl) were added to a microtiter plate immobilized with a monoclonal antibody to the corresponding member of the TNF family and incubated at room temperature for 2 hours. Then, the wells of the microtiter plate were washed four times with a washing buffer and 100 μl of biotin-conjugated monoclonal antibody was added to each wells of the plate, following by incubation at room temperature for 1 hour and washing the wells of the plate completely. Then, they were incubated together with 100 μl of streptoavidin-conjugated horseradish peroxidase at room temperature for 30 minutes and washed four times with a washing buffer. […] After an addition of a reaction terminating solution, the wells were measured at 450 nm with microreader.\n(§3) In this experiment, the ALVA-41 cells were treated with cathepsin E (100 μg/ml) or physiological saline at 37° C. and pH 7.4 for 20 hours and measured for the amounts of TNF-α, FasL and TRAIL in the culture supernatant by ELSA. […] Apoptosis of the ALVA-41 cells was measured using the culture supernatant after immunoprecipitation. […]"}, "TNF-α": {"tested_on": "TNF-α", "assay": "ELISA of TNF-α in culture supernatant of ALVA-41 cells", "assay_type": "cell-based, human", "settings": "ALVA-41 cells treated with cathepsin E 100 μg/ml, 20 hours", "description": "as §2, §3"}},
  "data": [
    {"substance": "cathepsin E", "values": [
      {"measurement": "influence upon survival and morphology of normal PrE cells", "setting": "[1]", "result": "little exerted influences upon the survival and morphology"},
      {"measurement": "order of increasing amounts of soluble TRAIL trimers secreted by treatment", "setting": "soluble TRAIL trimers", "result": "PrE<PC-3<PPC-1<ALVA-101≦DU145<ALVA-41"},
      {"measurement": "FasL in culture supernatant", "setting": "FasL", "result": "little detected"},
      {"measurement": "TNF-α in culture supernatant", "setting": "TNF-α", "result": "little detected"}
    ]}
  ]
}
